From patent publication US20240018119A1, “CARBOXAMIDE DERIVATIVE AND PHARMACEUTICAL COMPOSITION COMPRISING SAME AS ACTIVE INGREDIENT FOR PREVENTING OR TREATING MENTAL ILLNESS” (DAEGU-GYEONGBUK MEDICAL INNOVATION FOUNDATION, priority 2020, published 2024)

Tests used:
Assay type in all cases: cell-based
[1] = target: T1, norepinephrine transporter (Homo sapiens, UniProt P23975); assay: Norepinephrine reuptake inhibition in transporter-transfected HEK-293 cells ([3H]-NE); conditions: for Triple reuptake inhibition (Ratio %) NET: compound 1 μM, [3H]-NE, relative to control without compound (100%), lower = more inhibition; for IC50: concentration at which Ratio % is 50%, 6 concentrations 1 nM to 1 μM, read-out: Triple reuptake inhibition (IC50, μM) NET
T1 construct: expressed in transfected cells; host or cells: HEK-293
T1 sequence (P23975 whole entry, species assumed): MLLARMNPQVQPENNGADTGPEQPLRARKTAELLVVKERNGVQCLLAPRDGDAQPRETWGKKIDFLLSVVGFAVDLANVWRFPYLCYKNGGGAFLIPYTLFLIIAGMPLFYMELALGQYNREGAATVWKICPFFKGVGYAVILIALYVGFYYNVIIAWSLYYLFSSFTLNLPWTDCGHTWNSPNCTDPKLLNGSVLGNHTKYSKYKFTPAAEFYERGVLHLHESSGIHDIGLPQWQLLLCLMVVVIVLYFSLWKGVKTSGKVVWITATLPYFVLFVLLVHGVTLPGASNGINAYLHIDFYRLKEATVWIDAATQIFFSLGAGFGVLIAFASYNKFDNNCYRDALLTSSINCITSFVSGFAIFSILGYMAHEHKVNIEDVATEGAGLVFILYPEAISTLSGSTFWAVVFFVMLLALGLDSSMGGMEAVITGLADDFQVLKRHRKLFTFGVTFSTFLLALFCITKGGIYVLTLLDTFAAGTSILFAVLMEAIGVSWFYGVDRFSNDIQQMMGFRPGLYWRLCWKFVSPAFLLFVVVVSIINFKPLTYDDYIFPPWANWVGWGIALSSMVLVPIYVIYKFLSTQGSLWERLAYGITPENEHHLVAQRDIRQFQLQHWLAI
Protocol: (§1) To evaluate the reuptake inhibitory effect on dopamine, the dopamine transporter cDNA was transfected using the HEK-293 cell line, and then sub-seeded in a 24 well plate the next day. After removing the medium, each compound of the Examples or Comparative Examples diluted to 1 μM in uptake buffer was added to a concentration of 200 μl/well and cultured at 37° C. for 15 minutes. 100 μl of uptake buffer containing 20-30 nM [3H]-DA was added and cultured at 37° C. for 5 minutes. The reaction solution was quickly removed and washed three times with 1 ml ice-cold uptake buffer. After dissolving the resultant in 1% SDS (0.5 ml), the degree of binding of radioisotope-labeled dopamine to the transporter was measured.
(§2) For norepinephrine (NE) and serotonin (5-HT), the degree of binding of radioisotope-labeled norepinephrine or serotonin to the transporter was measured in the same manner as above, except that cells transfected with NE or 5-HT transporter cDNA were used and [3H]-NE or [3H]-5-HT was used as a substrate.
(§3) In addition, when evaluating the reuptake inhibitory effect on dopamine, norepinephrine, and serotonin, the same method was performed without treating each compound of the Examples or Comparative Examples as a control, the degree of binding of radioisotope-labeled dopamine, norepinephrine, and serotonin to the transporter was measured, and by using this as a standard (100%), the triple reuptake inhibitory effect was evaluated as a relative ratio (Ratio %). That is, in the control group, the binding of dopamine, norepinephrine, and serotonin to transporters is not inhibited, but when each compound of the Examples is treated and thus the binding is inhibited, the Patio % value decreases.
(§4) Meanwhile, the Patio % values were compared, and in the case of the compounds of Examples 6, 9, 10, 19, 20, 22, 24, 28, 30, 31, 32, 33, 35, 41, 42, 48, 49, 51, 55, 56, 59, 61, 63, 64, 65, 66, 74 and 76 with excellent reuptake inhibitory effects on dopamine, norepinephrine and serotonin, the concentration at which the Ratio % is 50% was calculated using a total of 6 concentrations (1 nM, 5 nM, 10 nM, 50 nM, 100 nM, and 1 μM) and expressed as IC50. In addition, in the case of the compound of Comparative Example 1, IC50 was obtained by the same method as the Example Compounds.

dopamine transporter = target: T2, dopamine transporter (Homo sapiens, UniProt Q01959); assay: Dopamine reuptake inhibition in transporter-transfected HEK-293 cells ([3H]-DA); conditions: for Triple reuptake inhibition (Ratio %) DAT: compound 1 μM, 20-30 nM [3H]-DA, relative to control without compound (100%), lower = more inhibition; for IC50: concentration at which Ratio % is 50%, 6 concentrations 1 nM to 1 μM, read-out: Triple reuptake inhibition (IC50, μM) DAT
T2 construct: expressed in transfected cells; host or cells: HEK-293
T2 sequence (Q01959 whole entry): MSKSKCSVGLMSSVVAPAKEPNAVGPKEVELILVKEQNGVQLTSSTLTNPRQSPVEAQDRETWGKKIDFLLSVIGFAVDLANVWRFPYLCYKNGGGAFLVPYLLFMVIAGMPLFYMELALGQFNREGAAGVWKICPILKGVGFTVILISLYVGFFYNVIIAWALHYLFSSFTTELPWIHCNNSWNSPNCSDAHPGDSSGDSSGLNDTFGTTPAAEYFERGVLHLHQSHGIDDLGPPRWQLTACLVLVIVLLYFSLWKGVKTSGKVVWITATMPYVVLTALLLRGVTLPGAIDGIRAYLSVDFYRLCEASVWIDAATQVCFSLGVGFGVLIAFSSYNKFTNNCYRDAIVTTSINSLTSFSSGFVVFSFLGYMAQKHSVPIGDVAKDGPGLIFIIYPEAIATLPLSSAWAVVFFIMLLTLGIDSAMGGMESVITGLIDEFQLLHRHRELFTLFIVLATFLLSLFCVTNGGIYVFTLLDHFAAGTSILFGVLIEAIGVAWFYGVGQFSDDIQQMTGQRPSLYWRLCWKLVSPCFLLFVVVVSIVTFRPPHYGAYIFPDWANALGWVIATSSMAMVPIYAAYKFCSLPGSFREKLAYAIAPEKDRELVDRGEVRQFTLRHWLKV
Protocol: as §1, §3, §4

serotonin transporter = target: T3, serotonin transporter (Homo sapiens, UniProt P31645); assay: Serotonin reuptake inhibition in transporter-transfected HEK-293 cells ([3H]-5-HT); conditions: for Triple reuptake inhibition (Ratio %) SERT: compound 1 μM, [3H]-5-HT, relative to control without compound (100%), lower = more inhibition; for IC50: concentration at which Ratio % is 50%, 6 concentrations 1 nM to 1 μM, read-out: Triple reuptake inhibition (IC50, μM) SERT
T3 construct: expressed in transfected cells; host or cells: HEK-293
T3 sequence (P31645 whole entry): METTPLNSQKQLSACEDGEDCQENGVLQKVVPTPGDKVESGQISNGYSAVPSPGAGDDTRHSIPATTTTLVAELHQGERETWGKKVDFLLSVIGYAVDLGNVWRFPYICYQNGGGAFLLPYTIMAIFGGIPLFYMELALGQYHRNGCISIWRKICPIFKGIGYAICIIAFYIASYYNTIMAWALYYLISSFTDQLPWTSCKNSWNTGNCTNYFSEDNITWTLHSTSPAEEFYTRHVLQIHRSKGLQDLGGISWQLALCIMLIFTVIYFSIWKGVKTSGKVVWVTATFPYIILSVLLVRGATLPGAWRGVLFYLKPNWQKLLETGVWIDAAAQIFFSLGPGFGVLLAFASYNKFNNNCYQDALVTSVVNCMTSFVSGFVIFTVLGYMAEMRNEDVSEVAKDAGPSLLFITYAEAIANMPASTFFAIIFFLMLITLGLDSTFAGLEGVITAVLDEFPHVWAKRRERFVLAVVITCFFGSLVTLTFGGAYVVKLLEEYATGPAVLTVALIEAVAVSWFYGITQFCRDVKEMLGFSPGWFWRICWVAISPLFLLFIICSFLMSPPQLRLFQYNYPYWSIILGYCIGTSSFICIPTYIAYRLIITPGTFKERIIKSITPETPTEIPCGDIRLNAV
Protocol: as §1, §2, §3
In addition, in the case of the compound of Comparative Example 1, IC50 was obtained by the same method as the Example Compounds.

Triple reuptake inhibition (Ratio %) NET [1] [%]	Triple reuptake inhibition (Ratio %) DAT (dopamine transporter) [%]	Triple reuptake inhibition (Ratio %) SERT (serotonin transporter) [%]	IC50 (dopamine transporter) [µM]	IC50 (serotonin transporter) [µM]	Structure (SMILES)	IC50 [1] [µM]
120.40	107.77	78.42			O=C(NCCN1CCN(c2cccc(C(F)(F)F)c2)CC1)c1ccc2cc(Br)ccc2c1 [Example 2]	
110.56	104.38	77.91			O=C(NCCN1CCN(c2ccc(Cl)c(Cl)c2)CC1)c1ccc2cc(Br)ccc2c1 [Example 3, 6-bromo-N-(2-(4-(3,4-dichlorophenyl)piperazin-1-yl)ethyl)-2-naphthamide]	
121.24	108.51	73.53			O=C(NCCN1CCN(c2cccc(Cl)c2Cl)CC1)c1ccc2cc(Br)ccc2c1 [Example 4, 6-bromo-N-(2-(4-(2,3-dichlorophenyl)piperazin-1-yl)ethyl)-2-naphthamide]	
94.24	96.26	76.90			O=C(NCCN1CCN(Cc2ccccc2)CC1)c1ccc2cc(Br)ccc2c1 [Example 5, N-(2-(4-benzylpiperazin-1-yl)ethyl)-6-bromo-2-naphthamide]	
76.85	44.72	37.57	4.29		O=C(NCCN1CCC(Cc2ccc(Cl)c(Cl)c2)CC1)c1cc(Cl)cc(Cl)c1 [Example 10, 3,5-dichloro-N-(2-(4-(3,4-dichlorobenzyl)piperidin-1-yl)ethyl)benzamide]	14.3
94.42	103.97	93.46			O=C(NCCN1CCN(c2cccc(C(F)(F)F)c2)CC1)c1ccc(Cl)c(Cl)c1 [Example 12, 3,4-dichloro-N-(2-(4-(3-(trifluoromethyl)phenyl)piperazin-1-yl)ethyl)benzamide]	
94.42	106.09	89.10			O=C(NCCN1CCN(c2cccc(Cl)c2Cl)CC1)c1ccc(Cl)c(Cl)c1 [Example 13, 3,4-dichloro-N-(2-(4-(2,3-dichlorophenyl)piperazin-1-yl)ethyl)benzamide]	
72.94	85.21	114.75			O=C(NCCN1CCN(Cc2ccccc2)CC1)c1ccc(Cl)c(Cl)c1 [Example 15, N-(2-(4-benzylpiperazin-1-yl)ethyl)-3,4-dichlorobenzamide]	
67.88	68.93	47.45			O=C(NCCN1CCC(Cc2ccccc2)CC1)c1ccc(Cl)c(Cl)c1 [Example 18, N-(2-(4-benzylpiperidin-1-yl)ethyl)-3,4-dichlorobenzamide]	
85.70	43.53	83.11	1.37		Cc1c(C(=O)NCCN2CCC(Cc3ccccc3)CC2)[nH]c2ccccc12 [Example 20, N-(2-(4-benzylpiperidin-1-yl)ethyl)-3-methyl-1H-indol-2-carboxamide]	
99.59	70.42	85.13			O=C(NCCN1CCN(c2cccc(Cl)c2Cl)CC1)c1cc2ccccc2[nH]1 [Example 23, N-(2-(4-(2,3-dichlorophenyl)piperazin-1-yl)ethyl)-1H-indol-2-carboxamide]	
107.75	43.28	59.92	8.03	> 10	O=C(NCCN1CCN(c2ccc(Cl)c(Cl)c2)CC1)c1cc2ccccc2[nH]1 [Example 24, N-(2-(4-(3,4-dichlorophenyl)piperazin-1-yl)ethyl)-1H-indol-2-carboxamide]	

Second part, the molecule before the results:

Structure (SMILES)	Triple reuptake inhibition (Ratio %) NET [1] [%]	Triple reuptake inhibition (Ratio %) DAT (dopamine transporter) [%]	Triple reuptake inhibition (Ratio %) SERT (serotonin transporter) [%]	IC50 (dopamine transporter) [µM]	IC50 (serotonin transporter) [µM]	IC50 [1] [µM]
O=C(NCCN1CCC(Cc2ccc(F)c(F)c2)CC1)c1ccc2cc(Br)ccc2c1 [Example 6, 6-bromo-N-(2-(4-(3,4-difluorobenzyl)piperidin-1-yl)ethyl)-2-naphthamide]	34.16	57.66	73.84	3.93	14	
O=C(NCCN1CCN(Cc2ccc(F)c(F)c2)CC1)c1ccc2cc(Br)ccc2c1 [Example 7, 6-bromo-N-(2-(4-(3,4-difluorobenzyl)piperazin-1-yl)ethyl)-2-naphthamide]	60.83	82.42	103.19			
O=C(NCCn1ccc(-c2ccc(F)cn2)n1)c1ccc2cc(Br)ccc2c1 [Example 8, 6-bromo-N-(2-(3-(5-fluoropyridin-2-yl)-1H-pyrazol-1-yl)ethyl)-2-naphthamide]	95.78	97.06	86.83			
O=C(NCCN1CCC(Cc2ccc(Cl)c(Cl)c2)CC1)c1ccc2cc(Br)ccc2c1 [Example 9, 6-bromo-N-(2-(4-(3,4-dichlorobenzyl)piperidin-1-yl)ethyl)-2-naphthamide]	98.42	78.56	9.92	2.91	3.07	
O=C(NCCN1CCN(Cc2ccc(Cl)c(Cl)c2)CC1)c1ccc(Cl)c(Cl)c1 [Example 11, 3,4-dichloro-N-(2-(4-(3,4-dichlorobenzyl)piperazin-1-yl)ethyl)benzamide]	82.25	75.29	63.40			
O=C(NCCN1CCN(c2ccc(Cl)c(Cl)c2)CC1)c1ccc(Cl)c(Cl)c1 [Example 14, 3,4-dichloro-N-(2-(4-(3,4-dichlorphenyl)piperazin-1-yl)ethyl)benzamide]	105.49	94.20	88.61			
O=C(NCCN1CCN(Cc2ccc(F)c(F)c2)CC1)c1ccc(Cl)c(Cl)c1 [Example 16, 3,4-dichloro-N-(2-(4-(3,4-difluorobenzyl)piperazin-1-yl)ethyl)benzamide]	82.44	85.54	113.34			
O=C(NCCN1CCC(Cc2ccc(Cl)c(Cl)c2)CC1)c1ccc(Cl)c(Cl)c1 [Example 17, 3,4-dichloro-N-(2-(4-(3,4-dichlorobenzyl)piperidin-1-yl)ethyl)benzamide]	88.67	66.05	4.81			
O=C(NCCN1CCC(Cc2ccc(Cl)c(Cl)c2)CC1)c1cc2ccccc2[nH]1 [Example 19, N-(2-(4-(3,4-dichlorobenzyl)piperidin-1-yl)ethyl)-1H-indol-2-carboxamide]	94.93	36.79	40.39	0.59	0.51	> 10
O=C(NCCN1CCN(c2cccc(C(F)(F)F)c2)CC1)c1cc2ccccc2[nH]1 [Example 21, N-(2-(4-(3-(trifluoromethyl)phenyl)piperazin-1-yl)ethyl)-1H-indol-2-carboxamide]	97.95	94.30	86.98			
O=C(NCCN1CCN(Cc2ccc(Cl)c(Cl)c2)CC1)c1cc2ccccc2[nH]1 [Example 22, N-(2-(4-(3,4-dichlorobenzyl)piperazin-1-yl)ethyl)-1H-indol-2-carboxamide]	91.21	63.72	52.47		> 10	
